Data published in ChEMBL document CHEMBL5608113, “Targeting of CAF-induced therapy resistance in CRC organoid-stroma co-cultures” (2024).

Each compound was assayed on Colon cancer organoid (assay: Targeting of F14 CAF-induced therapy resistance in O23 CRC organoid-stroma co-culture. Cell viability is reported with Gefitinib.). Settings: Homo sapiens, Concentration 1 uM; read-out: Cell Viability.
Assay type: functional, Homo sapiens
For `O=S(=O)(NC1CCC(c2cc(F)ccc2F)(S(=O)(=O)c2ccc(Cl)cc2)CC1)C(F)(F)F` (stereo not given) [MRK-560], the viability at 1 µM was 60.6%.
For `O=C(c1ccc(F)cc1)N1CC(COc2ccc(Br)cc2)(C(=O)O)C1` [PF-04475866], the viability at 1 µM was 66.8%.

Same assay, conditions: Homo sapiens, Concentration 10 uM; read-out: Cell Viability
In the case of `CCOCCn1cc(C(=O)Nc2ccc(-n3nc(-c4cccnc4)cc3C(F)(F)F)cn2)ccc1=O` [BI 1935], the viability at 10 µM was 70.8%.
For `O=C(NCCCN1CCOC1=O)c1cnc(NCc2cc(Br)ccc2Br)nc1NC1CCCC1`, the viability at 10 µM was 55.2%.
Compound `CN(C)C(=O)c1sc2nc(N3CCC(S(C)(=O)=O)CC3)cc(C(F)(F)F)c2c1N` [BI-5026] has a viability at 10 µM of 50%.
`C[C@@H]1CN(c2cc(-c3nn(C)c4ccc(OC5(C)CC5)cc34)ncn2)C[C@H](C)O1` [MLi-2-NC] gave a viability at 10 µM of 40.9%.
For `COCCN1CCC(c2cc(CN(C)C(=O)c3cccc(Oc4ccccc4)c3)ccn2)CC1`, the viability at 10 µM was 27.5%.
`CN(C)C(=O)c1ccc(-c2cc(C(=O)N[C@@H]3CCc4ccccc43)no2)cc1O` showed a viability at 10 µM of 61.6%.
For `CN1CCN(C(=O)C(C)(C)c2ccc(C(=O)Nc3cn4cc(-c5cc(C(C)(C)C)cc(C(C)(C)C)c5)ccc4n3)cc2)CC1` [T3-CLK-N], the viability at 10 µM was 28.2%.

Each compound was assayed on Colon cancer organoid (assay: Targeting of F14 CAF-induced therapy resistance in O23 CRC organoid-stroma co-culture. Cell viability is reported with SN-38.). Settings: Homo sapiens, Concentration 1 uM; read-out: Cell Viability.
Assay type: functional, Homo sapiens
`O=S(=O)(NC1CCC(c2cc(F)ccc2F)(S(=O)(=O)c2ccc(Cl)cc2)CC1)C(F)(F)F` (stereo not given) [MRK-560] was tested, and the viability at 1 µM was 64.4%.
For `O=C(c1ccc(F)cc1)N1CC(COc2ccc(Br)cc2)(C(=O)O)C1` [PF-04475866], the viability at 1 µM was 85.2%.

Same assay, conditions: Homo sapiens, Concentration 10 uM; read-out: Cell Viability
With `CCOCCn1cc(C(=O)Nc2ccc(-n3nc(-c4cccnc4)cc3C(F)(F)F)cn2)ccc1=O` [BI 1935] the viability at 10 µM was 64.4%.
Compound `O=C(NCCCN1CCOC1=O)c1cnc(NCc2cc(Br)ccc2Br)nc1NC1CCCC1` has a viability at 10 µM of 61.8%.
`CN(C)C(=O)c1sc2nc(N3CCC(S(C)(=O)=O)CC3)cc(C(F)(F)F)c2c1N` [BI-5026] gave a viability at 10 µM of 79.7%.
With `C[C@@H]1CN(c2cc(-c3nn(C)c4ccc(OC5(C)CC5)cc34)ncn2)C[C@H](C)O1` [MLi-2-NC] the viability at 10 µM was 62.4%.
Work on `COCCN1CCC(c2cc(CN(C)C(=O)c3cccc(Oc4ccccc4)c3)ccn2)CC1` yielded a viability at 10 µM of 34%.
`CN(C)C(=O)c1ccc(-c2cc(C(=O)N[C@@H]3CCc4ccccc43)no2)cc1O` was tested, and the viability at 10 µM was 64.6%.
`CN1CCN(C(=O)C(C)(C)c2ccc(C(=O)Nc3cn4cc(-c5cc(C(C)(C)C)cc(C(C)(C)C)c5)ccc4n3)cc2)CC1` [T3-CLK-N] showed a viability at 10 µM of 63.2%.

What follows are compounds tested on Colon cancer organoid (assay: Targeting of F14 CAF-induced therapy resistance in O14 CRC organoid-stroma co-culture. Cell viability is reported without Gefitinib.). Settings: Homo sapiens, Concentration 1 uM; read-out: Cell Viability.
Assay type: functional, Homo sapiens
With `O=S(=O)(NC1CCC(c2cc(F)ccc2F)(S(=O)(=O)c2ccc(Cl)cc2)CC1)C(F)(F)F` (stereo not given) [MRK-560] the viability at 1 µM was 73.7%.
`O=C(c1ccc(F)cc1)N1CC(COc2ccc(Br)cc2)(C(=O)O)C1` [PF-04475866] was tested, and the viability at 1 µM was 159%.

Same assay, conditions: Homo sapiens, Concentration 10 uM; read-out: Cell Viability
`CCOCCn1cc(C(=O)Nc2ccc(-n3nc(-c4cccnc4)cc3C(F)(F)F)cn2)ccc1=O` [BI 1935] showed a viability at 10 µM of 82.6%.
`O=C(NCCCN1CCOC1=O)c1cnc(NCc2cc(Br)ccc2Br)nc1NC1CCCC1` was tested, and the viability at 10 µM was 126%.
`CN(C)C(=O)c1sc2nc(N3CCC(S(C)(=O)=O)CC3)cc(C(F)(F)F)c2c1N` [BI-5026] gave a viability at 10 µM of 108%.
With `C[C@@H]1CN(c2cc(-c3nn(C)c4ccc(OC5(C)CC5)cc34)ncn2)C[C@H](C)O1` [MLi-2-NC] the viability at 10 µM was 77.2%.
With `COCCN1CCC(c2cc(CN(C)C(=O)c3cccc(Oc4ccccc4)c3)ccn2)CC1` the viability at 10 µM was 67.2%.
Compound `CN(C)C(=O)c1ccc(-c2cc(C(=O)N[C@@H]3CCc4ccccc43)no2)cc1O` has a viability at 10 µM of 77%.
With `CN1CCN(C(=O)C(C)(C)c2ccc(C(=O)Nc3cn4cc(-c5cc(C(C)(C)C)cc(C(C)(C)C)c5)ccc4n3)cc2)CC1` [T3-CLK-N] the viability at 10 µM was 112%.

What follows are compounds tested on Colon cancer organoid (assay: Targeting of F14 CAF-induced therapy resistance in O23 CRC organoid-stroma co-culture. Cell viability is reported without Gefitinib.). Settings: Homo sapiens, Concentration 1 uM; read-out: Cell Viability.
Assay type: functional, Homo sapiens
`O=S(=O)(NC1CCC(c2cc(F)ccc2F)(S(=O)(=O)c2ccc(Cl)cc2)CC1)C(F)(F)F` (stereo not given) [MRK-560] gave a viability at 1 µM of 130%.
Compound `O=C(c1ccc(F)cc1)N1CC(COc2ccc(Br)cc2)(C(=O)O)C1` [PF-04475866] has a viability at 1 µM of 118%.

Same assay, conditions: Homo sapiens, Concentration 10 uM; read-out: Cell Viability
In the case of `CCOCCn1cc(C(=O)Nc2ccc(-n3nc(-c4cccnc4)cc3C(F)(F)F)cn2)ccc1=O` [BI 1935], the viability at 10 µM was 98.5%.
In the case of `O=C(NCCCN1CCOC1=O)c1cnc(NCc2cc(Br)ccc2Br)nc1NC1CCCC1`, the viability at 10 µM was 118%.
In the case of `CN(C)C(=O)c1sc2nc(N3CCC(S(C)(=O)=O)CC3)cc(C(F)(F)F)c2c1N` [BI-5026], the viability at 10 µM was 83.8%.
Work on `C[C@@H]1CN(c2cc(-c3nn(C)c4ccc(OC5(C)CC5)cc34)ncn2)C[C@H](C)O1` [MLi-2-NC] yielded a viability at 10 µM of 107%.
`COCCN1CCC(c2cc(CN(C)C(=O)c3cccc(Oc4ccccc4)c3)ccn2)CC1` showed a viability at 10 µM of 46.6%.
Compound `CN(C)C(=O)c1ccc(-c2cc(C(=O)N[C@@H]3CCc4ccccc43)no2)cc1O` has a viability at 10 µM of 83.1%.
In the case of `CN1CCN(C(=O)C(C)(C)c2ccc(C(=O)Nc3cn4cc(-c5cc(C(C)(C)C)cc(C(C)(C)C)c5)ccc4n3)cc2)CC1` [T3-CLK-N], the viability at 10 µM was 81.4%.

Each compound was assayed on Colon cancer organoid (assay: Targeting of F14 CAF-induced therapy resistance in O14 CRC organoid-stroma co-culture. Cell viability is reported with Gefitinib.). Settings: Homo sapiens, Concentration 1 uM; read-out: Cell Viability.
Assay type: functional, Homo sapiens
For `O=S(=O)(NC1CCC(c2cc(F)ccc2F)(S(=O)(=O)c2ccc(Cl)cc2)CC1)C(F)(F)F` (stereo not given) [MRK-560], the viability at 1 µM was 32.8%.
With `O=C(c1ccc(F)cc1)N1CC(COc2ccc(Br)cc2)(C(=O)O)C1` [PF-04475866] the viability at 1 µM was 36.4%.

Same assay, conditions: Homo sapiens, Concentration 10 uM; read-out: Cell Viability
With `CCOCCn1cc(C(=O)Nc2ccc(-n3nc(-c4cccnc4)cc3C(F)(F)F)cn2)ccc1=O` [BI 1935] the viability at 10 µM was 40.1%.
For `O=C(NCCCN1CCOC1=O)c1cnc(NCc2cc(Br)ccc2Br)nc1NC1CCCC1`, the viability at 10 µM was 51.8%.
With `CN(C)C(=O)c1sc2nc(N3CCC(S(C)(=O)=O)CC3)cc(C(F)(F)F)c2c1N` [BI-5026] the viability at 10 µM was 51%.
For `C[C@@H]1CN(c2cc(-c3nn(C)c4ccc(OC5(C)CC5)cc34)ncn2)C[C@H](C)O1` [MLi-2-NC], the viability at 10 µM was 28.6%.
Work on `COCCN1CCC(c2cc(CN(C)C(=O)c3cccc(Oc4ccccc4)c3)ccn2)CC1` yielded a viability at 10 µM of 65.6%.
Work on `CN(C)C(=O)c1ccc(-c2cc(C(=O)N[C@@H]3CCc4ccccc43)no2)cc1O` yielded a viability at 10 µM of 33.6%.
Compound `CN1CCN(C(=O)C(C)(C)c2ccc(C(=O)Nc3cn4cc(-c5cc(C(C)(C)C)cc(C(C)(C)C)c5)ccc4n3)cc2)CC1` [T3-CLK-N] has a viability at 10 µM of 53.2%.
